One test concerns GAL4RXR + VP16CfEcR. Description: Transactivation of reporter genes through switch 1.3 in CHO cells. Particulars: switch 1.3 GAL4RXR + VP16CfEcR, pGAL4RELuc. The format is cell-based, Choristoneura fumiferana. As for the experimental part:
(§1) The cells were harvested and reporter activity was assayed.
(§2) Cells were harvested 24-48 hr after adding ligands. […] Twenty μl of lysate was assayed.
For orientation: In a reporter assay the amount or activity of a reporter protein is the signal.

Test [1] relates to GAL4USP + VP16CfEcR. Kind of test: Transactivation of reporter genes through switch 1.5 in CHO cells. The format is cell-based, Choristoneura fumiferana. Conditions: switch 1.5 GAL4USP + VP16CfEcR, pGAL4RELuc. On the procedure: (§3) This construct was prepared in the same way as switch 1.3 except MmRXRDEF was replaced with CfUSPDEF (SEQ ID NO: 58).
as §1, §2

The next test concerns GAL4EcR + VP16RXR. Kind of test: Transactivation of reporter genes through switch 1.1 in 293 cells. The format is cell-based, Choristoneura fumiferana. Particulars: switch 1.1 GAL4EcR + VP16RXR, pGAL4RELuc. On the procedure:
(§4) The same procedures described for CHO were followed for 293 cells except that the cells were plated in biocoated plates to avoid clumping.
as §2

A further test concerns VP16CfEcR. Description: Transactivation of reporter genes through switch 1.7 in 293 cells. Conditions: switch 1.7 VP16CfEcR, pEcRELuc. The format is cell-based, Choristoneura fumiferana. On the procedure: Six ecdysone response elements (“EcRE”; SEQ ID NO: 59) from the hsp27 gene were placed upstream of the promoter and a luciferase gene (SEQ ID NO: 57). This switch most probably uses endogenous RXR.
as §4, §2

For another test, the system named is CfVgRXR. Kind of test: Transactivation of reporter genes through switch 1.10 in 293 cells. Particulars: switch 1.10 CfVgRXR, pIND(SP1)LacZ. The format is cell-based, Choristoneura fumiferana. On the procedure:
This example was prepared in the same way as switch 1.9 except MmRXR (SEQ ID NO: 53) was deleted.
as §4, §2

The next test relates to GAL4EcR + VP16USP. Kind of test: Transactivation of reporter genes through switch 1.2 in CV1 cells. The format is cell-based, Choristoneura fumiferana. Conditions: switch 1.2 GAL4EcR + VP16USP, pGAL4RELuc. As for the experimental part: This construct was prepared in the same way as in switch 1.1 above except MmRXRDEF was replaced with the D, E and F domains from spruce budworm USP (“CfUSPDEF”; SEQ ID NO: 58). The constructs used in this example are similar to those disclosed in U.S. Pat. No. 5,880,333 except that Choristoneura fumiferana USP rather than Drosophila melanogaster USP was utilized.
(§5) The same procedures described for NIH3T3 cells were followed for CV1 cells
as §2

Test [2] has as its system GAL4USP + VP16CfEcR. Description: Transactivation of reporter genes through switch 1.5 in CV1 cells. The format is cell-based, Choristoneura fumiferana. Particulars: switch 1.5 GAL4USP + VP16CfEcR, pGAL4RELuc. As for the experimental part:
as §3, §5, §2

The next test has as its system GAL4CfEcRVP16. Description: Transactivation of reporter genes through switch 1.6 in CV1 cells. The format is cell-based, Choristoneura fumiferana. Particulars: switch 1.6 GAL4CfEcRVP16, pGAL4RELuc. On the procedure:
This construct was prepared so that both the GAL4 DNABD and the VP16AD were placed on the same molecule. GAL4DNABD (SEQ ID NO: 41) and VP16AD (SEQ ID NO: 45) were fused to CfEcRDEF (SEQ ID NO: 3) at N- and C-termini respectively.
as §5, §2

The target of the next test is T1, DmVgRXR + MmRXR (Drosophila melanogaster, UniProt P34021, E282G/G283S/G286V).
T1 construct: host or cells: CHO, NIH3T3, 293 or CV1 cells (one cell line per assay)
Kind of test: Transactivation of reporter genes through switch 1.8 in CV1 cells. The format is cell-based. Particulars: switch 1.8 DmVgRXR + MmRXR, pIND(SP1)LacZ.
From the text: This system was purchased from Invitrogen Corp., Carlsbad, Calif. It comprises a Drosophila melanogaster EcR (“DmEcR”) with a modified DNABD fused to VP16AD and placed under the control of a CMV promoter (SEQ ID NO: 60). Full length MmRXR (SEQ ID NO: 53) was placed under the control of the RSV promoter (SEQ ID NO: 61). The reporter, pIND(SP1)LacZ, contains five copies of a modified ecdysone response element (“EcRE”, E/GRE), three copies of an SP1 enhancer, and a minimal heat shock promoter, all of which were placed upstream to the LacZ reporter gene.
as §5, §2

In the next test the test system is CfVgRXR + MmRXR. Kind of test: Transactivation of reporter genes through switch 1.9 in CV1 cells. The format is cell-based, Choristoneura fumiferana. Conditions: switch 1.9 CfVgRXR + MmRXR, pIND(SP1)LacZ. On the procedure:
This example was prepared in the same way as switch 1.8 except DinEcR was replaced with a truncated CfEcR comprising a partial A/B domain and the complete CDEF domains [SEQ ID NO: 62 (polynucleotide) and SEQ ID NO: 63 (polypeptide)].
as §5, §2

The target in a further test is T2, GAL4RXR + VP16DmEcR (Drosophila melanogaster, UniProt P34021).
T2 sequence (P34021 254-878): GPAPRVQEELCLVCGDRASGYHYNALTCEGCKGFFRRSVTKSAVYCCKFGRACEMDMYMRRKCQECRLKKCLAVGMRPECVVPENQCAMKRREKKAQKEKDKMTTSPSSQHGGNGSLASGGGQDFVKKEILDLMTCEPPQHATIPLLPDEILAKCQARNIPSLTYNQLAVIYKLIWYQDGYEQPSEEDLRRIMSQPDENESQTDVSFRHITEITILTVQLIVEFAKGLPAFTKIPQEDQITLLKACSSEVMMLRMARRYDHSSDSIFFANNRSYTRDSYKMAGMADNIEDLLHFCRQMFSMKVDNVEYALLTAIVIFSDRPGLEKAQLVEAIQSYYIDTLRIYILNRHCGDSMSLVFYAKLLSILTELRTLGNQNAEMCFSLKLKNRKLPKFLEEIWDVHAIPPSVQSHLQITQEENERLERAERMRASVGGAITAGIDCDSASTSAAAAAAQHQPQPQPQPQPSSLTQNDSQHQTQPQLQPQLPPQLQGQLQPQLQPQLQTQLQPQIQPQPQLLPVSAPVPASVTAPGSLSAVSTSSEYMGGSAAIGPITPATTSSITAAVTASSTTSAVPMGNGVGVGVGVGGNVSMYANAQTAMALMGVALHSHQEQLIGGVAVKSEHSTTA
T2 sequence (P28700 206-467 partner limits assumed): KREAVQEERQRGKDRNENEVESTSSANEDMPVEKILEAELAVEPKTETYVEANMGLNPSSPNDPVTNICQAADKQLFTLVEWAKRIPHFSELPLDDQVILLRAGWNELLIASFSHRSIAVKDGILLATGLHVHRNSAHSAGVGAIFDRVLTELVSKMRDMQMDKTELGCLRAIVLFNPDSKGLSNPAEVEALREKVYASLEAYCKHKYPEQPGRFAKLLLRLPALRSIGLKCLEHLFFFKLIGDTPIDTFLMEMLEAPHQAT
Kind of test: Transactivation of reporter genes through switch 1.4 in 293 cells. Details: expressed in transfected cells; host or cells: 293 cells (transient co-transfection). The format is cell-based. Conditions: switch 1.4 GAL4RXR + VP16DmEcR, pGAL4RELuc. On the procedure:
This construct was prepared in the same way as switch 1.3 except CfEcRCDEF was replaced with DmEcRCDEF (SEQ ID NO: 6).
as §4, §2

The values below come from patent US8822754B2, “Ecdysone receptor-based inducible gene expression system” (Intrexon Corporation, priority 2000, dated 2014).

T1 sequence (P34021 whole entry E282G/G283S/G286V): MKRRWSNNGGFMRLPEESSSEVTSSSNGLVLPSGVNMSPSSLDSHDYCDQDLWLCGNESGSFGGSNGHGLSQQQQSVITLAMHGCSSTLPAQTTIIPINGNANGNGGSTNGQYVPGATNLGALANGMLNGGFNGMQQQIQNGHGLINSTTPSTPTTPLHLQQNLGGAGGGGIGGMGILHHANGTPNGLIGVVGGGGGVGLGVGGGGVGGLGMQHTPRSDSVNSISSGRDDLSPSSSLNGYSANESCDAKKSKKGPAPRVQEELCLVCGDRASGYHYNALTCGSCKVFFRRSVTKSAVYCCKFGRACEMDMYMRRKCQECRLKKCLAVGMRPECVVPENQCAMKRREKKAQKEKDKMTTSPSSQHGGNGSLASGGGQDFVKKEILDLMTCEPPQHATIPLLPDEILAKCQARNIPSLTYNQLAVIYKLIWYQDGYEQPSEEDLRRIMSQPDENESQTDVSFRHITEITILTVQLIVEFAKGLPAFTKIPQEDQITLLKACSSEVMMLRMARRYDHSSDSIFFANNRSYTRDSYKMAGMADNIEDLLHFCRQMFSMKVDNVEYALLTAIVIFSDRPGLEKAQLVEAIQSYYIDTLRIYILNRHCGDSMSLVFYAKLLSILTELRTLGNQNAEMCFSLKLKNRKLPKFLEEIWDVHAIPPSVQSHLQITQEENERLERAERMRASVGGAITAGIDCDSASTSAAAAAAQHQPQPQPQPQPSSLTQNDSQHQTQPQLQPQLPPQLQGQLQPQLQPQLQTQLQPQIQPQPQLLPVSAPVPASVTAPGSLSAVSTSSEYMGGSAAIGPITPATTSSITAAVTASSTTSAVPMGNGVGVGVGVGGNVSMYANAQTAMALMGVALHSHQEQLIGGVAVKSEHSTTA
T1 sequence (P28700 whole entry, further chain): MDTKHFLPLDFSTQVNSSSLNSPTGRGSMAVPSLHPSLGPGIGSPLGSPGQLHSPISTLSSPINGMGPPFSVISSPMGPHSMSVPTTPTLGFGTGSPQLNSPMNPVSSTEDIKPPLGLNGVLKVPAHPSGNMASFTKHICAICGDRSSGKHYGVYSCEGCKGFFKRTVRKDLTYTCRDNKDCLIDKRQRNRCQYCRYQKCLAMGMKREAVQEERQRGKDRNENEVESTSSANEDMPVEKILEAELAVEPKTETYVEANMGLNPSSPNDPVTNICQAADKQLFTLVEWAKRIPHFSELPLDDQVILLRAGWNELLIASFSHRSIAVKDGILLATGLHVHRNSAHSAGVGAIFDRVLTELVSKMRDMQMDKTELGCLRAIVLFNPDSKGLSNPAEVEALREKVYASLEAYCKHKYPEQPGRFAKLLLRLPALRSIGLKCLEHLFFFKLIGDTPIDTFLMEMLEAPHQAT

For `CCc1c(OC)cccc1C(=O)NN(C(=O)c1cc(C)cc(C)c1)C(C)(C)C` [N-(2-ethyl-3-methoxybenzoyl)-N′-(3,5-dimethylbenzoyl)-N′-tert-butylhydrazine], the “Mean Fold Activation with 50 μM N-(2-ethyl-3-methoxybenzoyl)-N′-(3,5-dimethylbenzoyl)-N′-t-butylhydrazine” value is 85 fold with GAL4RXR + VP16CfEcR and 2 fold in the test with GAL4USP + VP16CfEcR [1]. For the same compound, the “Mean Fold Activation Through N-(2-ethyl-3-methoxybenzoyl)-N′-(3,5-dimethylbenzoyl)-N′-t-butylhydrazine” value in the test with GAL4EcR + VP16RXR came to 125 fold; in the test on VP16CfEcR, 2 fold; in the test with CfVgRXR, 3 fold; in the test on GAL4EcR + VP16USP, 2 fold; in the test on GAL4USP + VP16CfEcR [2], 3 fold; with GAL4CfEcRVP16 it was 6 fold. The “Mean Fold Activation Through N-(2-ethyl-3-methoxybenzoyl)-N′-(3,5-dimethylbenzoyl)-N′-t-butylhydrazine” value at DmVgRXR + MmRXR came out at 12 fold; in the test on CfVgRXR + MmRXR, 7 fold; at GAL4RXR + VP16DmEcR it was 3 fold.
